# Results reported in PubChem BioAssay AID2060332 (Molecular Pharmacology Branch, DTP, NCI, 2025).
# Test system: LG0567-F671-PDC multi-cell spheroid viability
# Assay: Anticancer human tumor LG0567-F671-PDC patient-derived lung adenocarcinoma cell line growth inhibition [IpAb]
# Conditions: for IC50: curve of first compound; for viability, T/C: stronger effect = lower value
# Procedure, shortened: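 Combinations with ipatasertib or abemaciclib were tested on tumour spheroids holding HUVEC (25%) and MSC (15%) alongside 60% malignant cells. Top concentration was at or near clinical Cmax (10 microM if undefined), descending in half-log steps.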
# [1] = second compound 0.01 µM, first compound 0.00949 µM
# [2] = second compound 0.01 µM, first compound 0.03 µM
# [3] = second compound 0.01 µM, first compound 0.0949 µM
# [4] = second compound 0.01 µM, first compound 0.3 µM
# [5] = second compound 0.0316 µM, first compound 0.00949 µM
# [6] = second compound 0.0316 µM, first compound 0.03 µM
# [7] = second compound 0.0316 µM, first compound 0.0949 µM
# [8] = second compound 0.0316 µM, first compound 0.3 µM
# [9] = second compound 0.1 µM, first compound 0.00949 µM
# [10] = second compound 0.1 µM, first compound 0.03 µM
# [11] = second compound 0.1 µM, first compound 0.0949 µM
# [12] = second compound 0.1 µM, first compound 0.3 µM
# [13] = second compound 0.316 µM, first compound 0.00949 µM
# [14] = second compound 0.316 µM, first compound 0.03 µM
# [15] = second compound 0.316 µM, first compound 0.0949 µM
# [16] = second compound 0.316 µM, first compound 0.3 µM
# [17] = second compound 1 µM, first compound 0.00949 µM
# [18] = second compound 1 µM, first compound 0.03 µM
# [19] = second compound 1 µM, first compound 0.0949 µM
# [20] = second compound 1 µM, first compound 0.3 µM
# 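Further: viability read after 7 days of drug exposure.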
# 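Wherever viability, T/C is given: 100% = DMSO vehicle control luminescence.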
SMILES,IC50 (second compound 0.01 µM) [µM],IC50 (second compound 0.0316 µM) [µM],IC50 (second compound 0.1 µM) [µM],IC50 (second compound 0.316 µM) [µM],IC50 (second compound 1 µM) [µM],"viability, T/C [1] [%]","viability, T/C [2] [%]","viability, T/C [3] [%]","viability, T/C [4] [%]","viability, T/C [5] [%]","viability, T/C [6] [%]","viability, T/C [7] [%]","viability, T/C [8] [%]","viability, T/C [9] [%]","viability, T/C [10] [%]","viability, T/C [11] [%]","viability, T/C [12] [%]","viability, T/C [13] [%]","viability, T/C [14] [%]","viability, T/C [15] [%]",also measured
CC(=O)c1c(C)c2cnc(Nc3ccc(N4CCNCC4)cn3)nc2n(C2CCCC2)c1=O + CCN1CCN(Cc2ccc(Nc3ncc(F)c(-c4cc(F)c5nc(C)n(C(C)C)c5c4)n3)nc2)CC1,> 0.3,> 0.3,> 0.3,> 0.3,> 0.3,87.8,62.5,82.8,69.2,94.1,75.2,55.4,57.4,62.6,80.2,60.3,51.2,67.1,49.4,56.8,"viability, T/C (second compound 0.01 µM, first compound 0.000949 µM): 74.8%; viability, T/C (second compound 0.01 µM, first compound 0.003 µM): 93.4%; viability, T/C (second compound 0.0316 µM, first compound 0.000949 µM): 83%; viability, T/C (second compound 0.0316 µM, first compound 0.003 µM): 65.1%; viability, T/C (second compound 0.1 µM, first compound 0.000949 µM): 84.4%; viability, T/C (second compound 0.1 µM, first compound 0.003 µM): 71.2%; viability, T/C (second compound 0.316 µM, first compound 0.000949 µM): 60.7%; viability, T/C (second compound 0.316 µM, first compound 0.003 µM): 51.7%; viability, T/C [16]: 50.7%; viability, T/C (second compound 1 µM, first compound 0.000949 µM): 53.4%; viability, T/C (second compound 1 µM, first compound 0.003 µM): 76.6%; viability, T/C [17]: 69%; viability, T/C [18]: 65.5%; viability, T/C [19]: 63.7%; viability, T/C [20]: 54.2%"
CC(C)(C)c1cnc(CSc2cnc(NC(=O)C3CCNCC3)s2)o1 + CCN1CCN(Cc2ccc(Nc3ncc(F)c(-c4cc(F)c5nc(C)n(C(C)C)c5c4)n3)nc2)CC1,0.152,0.129,0.106,0.0742,0.0525,108,118,82.8,3.32,86.5,92.3,66.8,4.66,62.2,81.8,55.4,2.56,56,73.7,45.9,"viability, T/C (second compound 0.01 µM, first compound 0.949 µM): 1.33%; viability, T/C (second compound 0.01 µM, first compound 3 µM): 0.84%; viability, T/C (second compound 0.0316 µM, first compound 0.949 µM): 1.42%; viability, T/C (second compound 0.0316 µM, first compound 3 µM): 0.84%; viability, T/C (second compound 0.1 µM, first compound 0.949 µM): 1.28%; viability, T/C (second compound 0.1 µM, first compound 3 µM): 0.81%; viability, T/C [16]: 3.08%; viability, T/C (second compound 0.316 µM, first compound 0.949 µM): 1.56%; viability, T/C (second compound 0.316 µM, first compound 3 µM): 1.05%; viability, T/C [17]: 58.5%; viability, T/C [18]: 66%; viability, T/C [19]: 37%; viability, T/C [20]: 4.69%; viability, T/C (second compound 1 µM, first compound 0.949 µM): 2.05%; viability, T/C (second compound 1 µM, first compound 3 µM): 1.1%"
